EP0726261A1, “Herbidical 1,2,4 thiadiazoles” (American Cyanamid Company, priority 1995, dated 1996)

Legend:
Type in all cases: in vivo
Hordeum vulgare [1] = experiment: Preemergence herbicidal activity (Example 67); parameters: herbicide rating, HORVW: scale not given here; details: pre; 800 g/ha; rated about 1-3 weeks after treatment
How it was run: (§1)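 At a rate of 800g/ha, an aqueous-diluted acetone solution of compound with 0.5% nonionic alkylphenol/ethylene oxide surfactant is applied to the soil of the cups. Greenhouse-held cups are scored on a rating system at about 1-3 weeks.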

Setaria viridis [2] = experiment: Preemergence herbicidal activity (Example 67); parameters: herbicide rating, SETVI: scale not given here; details: pre; 800 g/ha; rated about 1-3 weeks after treatment
How it was run: as §1

Helianthus annuus [3] = experiment: Postemergence herbicidal activity (Example 67); details: pos; 800 g/ha; rated after 10-21 days
How it was run: (§2)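 Rate: 800g/ha, sprayed postemergence in 400 L/ha onto seedlings aged 3-6 weeks. Formulation was acetone/0.5% TRITON X-155 diluted in water. Readout: visual rating, 10-21 days after treatment.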

Ipomoea hederacea [4] = experiment: Postemergence herbicidal activity (Example 67); details: pos; 800 g/ha; rated after 10-21 days
How it was run: as §2

Hordeum vulgare [5] = experiment: Postemergence herbicidal activity (Example 67); details: pos; 800 g/ha; rated after 10-21 days
How it was run: as §2

Amaranthus retroflexus [6] = experiment: Postemergence herbicidal activity (Example 67); details: pos; 800 g/ha; rated after 10-21 days
How it was run: as §2

Galium aparine [7] = experiment: Postemergence herbicidal activity (Example 67); details: pos; 800 g/ha; rated after 10-21 days
How it was run: as §2

Setaria viridis [8] = experiment: Postemergence herbicidal activity (Example 67); details: pos; 800 g/ha; rated after 10-21 days
How it was run: as §2

Alopecurus myosuroides [9] = experiment: Postemergence herbicidal activity (Example 67); details: pos; 800 g/ha; rated after 10-21 days
How it was run: as §2

Chenopodium album [10] = experiment: Postemergence herbicidal activity (Example 67); details: pos; 800 g/ha; rated after 10-21 days
How it was run: as §2

Triticum aestivum [11] = experiment: Postemergence herbicidal activity (Example 67); details: pos; 800 g/ha; rated after 10-21 days
How it was run: as §2

Veronica persica [12] = experiment: Postemergence herbicidal activity (Example 67); details: pos; 800 g/ha; rated after 10-21 days
How it was run: as §2

Abutilon theophrasti [13] = experiment: Postemergence herbicidal activity (Example 67); details: pos; 800 g/ha; rated after 10-21 days
How it was run: as §2

Zea mays [14] = experiment: Postemergence herbicidal activity (Example 67); details: pos; 800 g/ha; rated after 10-21 days
How it was run: as §2

Alopecurus myosuroides [15] = experiment: Preemergence herbicidal activity (Example 67); parameters: herbicide rating, ALOMY: scale not given here; details: pre; 800 g/ha; rated about 1-3 weeks after treatment
How it was run: as §1

Triticum aestivum [16] = experiment: Preemergence herbicidal activity (Example 67); parameters: herbicide rating, TRZAW: scale not given here; details: pre; 800 g/ha; rated about 1-3 weeks after treatment
How it was run: as §1

Helianthus annuus [17] = experiment: Preemergence herbicidal activity (Example 67); details: pre; 800 g/ha; rated about 1-3 weeks after treatment
How it was run: as §1

Ipomoea hederacea [18] = experiment: Preemergence herbicidal activity (Example 67); details: pre; 800 g/ha; rated about 1-3 weeks after treatment
How it was run: as §1

Amaranthus retroflexus [19] = experiment: Preemergence herbicidal activity (Example 67); details: pre; 800 g/ha; rated about 1-3 weeks after treatment
How it was run: as §1

Galium aparine [20] = experiment: Preemergence herbicidal activity (Example 67); details: pre; 800 g/ha; rated about 1-3 weeks after treatment
How it was run: as §1

Chenopodium album [21] = experiment: Preemergence herbicidal activity (Example 67); details: pre; 800 g/ha; rated about 1-3 weeks after treatment
How it was run: as §1

Veronica persica [22] = experiment: Preemergence herbicidal activity (Example 67); details: pre; 800 g/ha; rated about 1-3 weeks after treatment
How it was run: as §1

Abutilon theophrasti [23] = experiment: Preemergence herbicidal activity (Example 67); details: pre; 800 g/ha; rated about 1-3 weeks after treatment
How it was run: as §1

Zea mays [24] = experiment: Preemergence herbicidal activity (Example 67); details: pre; 800 g/ha; rated about 1-3 weeks after treatment
How it was run: as §1

CCCCc1nsc(C(=O)NCc2cccs2)n1 [Example 31]
herbicide rating, HORVW (Hordeum vulgare [1]): 0 | herbicide rating, SETVI (Setaria viridis [2]): 0 | herbicide rating, HELAN (Helianthus annuus [3]): 2 (6-15%) | herbicide rating, IPOHE (Ipomoea hederacea [4]): 3 (16-29%) | herbicide rating, HORVW (Hordeum vulgare [5]): 0 | herbicide rating, AMARE (Amaranthus retroflexus [6]): 0 | herbicide rating, GALAP (Galium aparine [7]): 2 (6-15%) | herbicide rating, SETVI (Setaria viridis [8]): 4 (30-44%) | herbicide rating, ALOMY (Alopecurus myosuroides [9]): 2 (6-15%) | herbicide rating, CHEAL (Chenopodium album [10]): 4 (30-44%) | herbicide rating, TRZAW (Triticum aestivum [11]): 2 (6-15%) | herbicide rating, VERPE (Veronica persica [12]): 0 | herbicide rating, ABUTH (Abutilon theophrasti [13]): 1 (1-5%) | herbicide rating, ZEAMX (Zea mays [14]): 1 (1-5%) | herbicide rating, ALOMY (Alopecurus myosuroides [15]): 0 | herbicide rating, TRZAW (Triticum aestivum [16]): 0 | herbicide rating, HELAN (Helianthus annuus [17]): 0 | herbicide rating, IPOHE (Ipomoea hederacea [18]): 0 | herbicide rating, AMARE (Amaranthus retroflexus [19]): 0 | herbicide rating, GALAP (Galium aparine [20]): 0 | herbicide rating, CHEAL (Chenopodium album [21]): 0 | herbicide rating, VERPE (Veronica persica [22]): 0 | herbicide rating, ABUTH (Abutilon theophrasti [23]): 0 | herbicide rating, ZEAMX (Zea mays [24]): 0

CC(NC(=O)c1nsc(-c2cccc(C(F)(F)F)c2)n1)c1cccs1 (racemic) [Example 3, (R/S)-5-(3-Trifluoromethylphenyl)-[1,2,4]thiadiazole-3-carboxylic acid, [1-(2-thienyl)ethyl]amide]
herbicide rating, HORVW (Hordeum vulgare [1]): 0 | herbicide rating, SETVI (Setaria viridis [2]): 0 | herbicide rating, HELAN (Helianthus annuus [3]): 4 (30-44%) | herbicide rating, IPOHE (Ipomoea hederacea [4]): 3 (16-29%) | herbicide rating, HORVW (Hordeum vulgare [5]): 2 (6-15%) | herbicide rating, AMARE (Amaranthus retroflexus [6]): 2 (6-15%) | herbicide rating, GALAP (Galium aparine [7]): 2 (6-15%) | herbicide rating, SETVI (Setaria viridis [8]): 8 (91-99%) | herbicide rating, ALOMY (Alopecurus myosuroides [9]): 3 (16-29%) | herbicide rating, CHEAL (Chenopodium album [10]): 4 (30-44%) | herbicide rating, TRZAW (Triticum aestivum [11]): 2 (6-15%) | herbicide rating, VERPE (Veronica persica [12]): 0 | herbicide rating, ABUTH (Abutilon theophrasti [13]): 1 (1-5%) | herbicide rating, ZEAMX (Zea mays [14]): 1 (1-5%) | herbicide rating, ALOMY (Alopecurus myosuroides [15]): 0 | herbicide rating, TRZAW (Triticum aestivum [16]): 0 | herbicide rating, HELAN (Helianthus annuus [17]): 0 | herbicide rating, IPOHE (Ipomoea hederacea [18]): 0 | herbicide rating, AMARE (Amaranthus retroflexus [19]): 0 | herbicide rating, GALAP (Galium aparine [20]): 0 | herbicide rating, CHEAL (Chenopodium album [21]): 3 (16-29%) | herbicide rating, VERPE (Veronica persica [22]): 0 | herbicide rating, ABUTH (Abutilon theophrasti [23]): 0 | herbicide rating, ZEAMX (Zea mays [24]): 0

C[C@H](NC(=O)c1nc(-c2ccc(Cl)cc2)ns1)c1ccccc1 [Example 27, (S)-3-(4-Chlorophenyl)-[1,2,4]thiadiazole-5-carboxylic acid, 1-(phenylethyl) amide]
herbicide rating, HORVW (Hordeum vulgare [1]): 0 | herbicide rating, SETVI (Setaria viridis [2]): 0 | herbicide rating, HELAN (Helianthus annuus [3]): 8 (91-99%) | herbicide rating, IPOHE (Ipomoea hederacea [4]): 7 (80-90%) | herbicide rating, HORVW (Hordeum vulgare [5]): 2 (6-15%) | herbicide rating, AMARE (Amaranthus retroflexus [6]): 5 (45-64%) | herbicide rating, GALAP (Galium aparine [7]): 5 (45-64%) | herbicide rating, SETVI (Setaria viridis [8]): 8 (91-99%) | herbicide rating, ALOMY (Alopecurus myosuroides [9]): 4 (30-44%) | herbicide rating, CHEAL (Chenopodium album [10]): 4 (30-44%) | herbicide rating, TRZAW (Triticum aestivum [11]): 2 (6-15%) | herbicide rating, VERPE (Veronica persica [12]): 7 (80-90%) | herbicide rating, ABUTH (Abutilon theophrasti [13]): 6 (65-79%) | herbicide rating, ZEAMX (Zea mays [14]): 5 (45-64%) | herbicide rating, ALOMY (Alopecurus myosuroides [15]): 0 | herbicide rating, TRZAW (Triticum aestivum [16]): 0 | herbicide rating, HELAN (Helianthus annuus [17]): 3 (16-29%) | herbicide rating, IPOHE (Ipomoea hederacea [18]): 1 (1-5%) | herbicide rating, AMARE (Amaranthus retroflexus [19]): 0 | herbicide rating, GALAP (Galium aparine [20]): 0 | herbicide rating, CHEAL (Chenopodium album [21]): 2 (6-15%) | herbicide rating, VERPE (Veronica persica [22]): 7 (80-90%) | herbicide rating, ABUTH (Abutilon theophrasti [23]): 0 | herbicide rating, ZEAMX (Zea mays [24]): 0
